Laboratory results: patent publication US20090326029A1, “NON-CYCLIC SUBSTITUTED BENZIMIDAZOLE THIOPHENE BENZYL ETHER COMPOUNDS” (priority 2006, published 2009)
Counter-ions that a name gives are not always drawn.

How the values were obtained:
PLK1 kinase domain = target: T1, PLK1 kinase domain (Homo sapiens, UniProt P53350); assay: Assay for Inhibition of PLK1 (SPA kinase assay); type: biochemical; settings: 2 nM PLK1 kinase domain, 1 μM ATP, 1 μM substrate peptide, 22° C.; read-out: PLK1 pIC50 (converted)
T1 construct: 6xHis (leader MKKGHHHHHHD) (N); made in house; host or cells: baculovirus infected T. ni cells
Procedure: 6× N-terminal His-tagged PLK kinase domain (amino acids 21-346 preceded by MKKGHHHHHHD) SEQ ID: No. 1. was prepared from baculovirus infected T. ni cells under polyhedrin promoter control. All procedures were performed at 4° C. Cells were lysed in 50 mM HEPES, 200 mM NaCl, 50 mM imidazole, 5% glycerol; pH 7.5. The homogenate was centrifuged at 14K rpm in a SLA-1500 rotor for 1 hr and the supernatant filtered through a 1.2 micron filter. The supernatant was loaded onto a Nickel chelating Sepharose (Amersham Pharmacia) column and washed with lysis buffer. Protein was eluted using 20%, 30% and 100% buffer B steps where buffer B was 50 mM HEPES, 200 mM NaCl, 300 mM imidazole, 5% glycerol; pH 7.5. Fractions containing PLK were determined by SDS-PAGE. Fractions containing PLK were diluted five-fold with 50 mM HEPES, 1 mM DTT, 5% glycerol; pH 7.5, then loaded on an SP Sepharose (Amersham Pharmacia) column. After washing the column with 50 mM HEPES, 1 mM DTT, 5% glycerol; pH 7.5, PLK was step eluted with 50 mM HEPES, 1 mM DTT, 500 mM NaCl; 5% glycerol; pH 7.5. PLK was concentrated using a 10 kDa molecular weight cutoff membrane and then loaded onto a Superdex 200 gel filtration (Amersham Pharmacia) column equilibrated in 25 mM HEPES, 1 mM DTT, 500 mM NaCl, 5% glycerol; pH 7.5. Fractions containing PLK were determined by SDS-PAGE. PLK was pooled, aliquoted and stored at −80° C. Samples were quality controlled using mass spectrometry, N-terminal sequencing and amino acid analysis.
All measurements were obtained under conditions where signal production increased linearly with time and enzyme. Test compounds were added to white 384-well assay plates (0.1 μL for 10 μL and some 20 μL assays, 1 μL for some 20 μL assays) at variable known concentrations in 100% DMSO. DMSO (I-5% final, as appropriate) and EDTA (65 mM in reaction) were used as controls. Reaction Mix was prepared as follows at 22° C.: • 25 mM HEPES, pH 7.2 • 15 mM MgCl2 • 1 μM ATP • 0.05 μCi/well ^33P-γ ATP (10 Ci/mMol) • 1 μM substrate peptide (Biotin-Ahx-SFNDTLDFD) SEQ ID: No. 2. • 0.15 mg/mL BSA • 1 mM DTT • 2 nM PLK1 kinase domain (added last)
Reaction Mix (10 or 20 μL) was quickly added to each well immediately following addition of enzyme via automated liquid handlers and incubated 1-1.5 h at 22° C. The 20 μL enzymatic reactions were stopped with 50 μL of stop mix (50 mM EDTA, 4.0 mg/mL Streptavidin SPA beads in Standard Dulbecco's PBS (without Mg^2+ and Ca^2+), 50 μM ATP) per well. The 10 μL reactions were stopped with 10 μL of stop mix (50 mM EDTA, 3.0 mg/mL Streptavidin-coupled SPA Imaging Beads (“LeadSeeker”) in Standard Dulbecco's PBS (without Mg^2+ and Ca^2+), 50 μM ATP) per well. Plates were sealed with clear plastic seals, spun at 500×g for 1 min or settled overnight, and counted in Packard TopCount for 30 seconds/well (regular SPA) or imaged using a Viewlux imager (LeadSeeker SPA). Signal above background (EDTA controls) was converted to percent inhibition relative to that obtained in control (DMSO-only) wells.

HCT116 = assay: Inhibition of Cell Proliferation (methylene blue or CellTiter-Glo); type: cell-based; settings: Homo sapiens, HCT-116; HCT116 cell growth, seventy two hours post-treatment, 10% fetal bovine serum
Procedure: Exponentially growing cell lines of different tumor origins, cultured in appropriate media containing 10% fetal bovine serum at 37° C. in a 5% CO2 incubator were plated at low density (less than 2000 cells/well) in 96-well plates. Twenty four hours post-plating, cells were treated with different concentrations of test compounds ranging from 10 uM to 0.04 nM. Several wells were left untreated as a control. Seventy two hours post-treatment, cell numbers were determined using different techniques; 100 μl per well of methylene blue (Sigma M9140) (0.5% in 50:50 Ethanol:water), or 50-100 ul per well of CellTiter-Glo (Promega #G7573). For methylene blue staining, stain was incubated at room temperature for 30 minutes before plates were rinsed and dye solubilized in 1% N-lauroyl sarcosine, sodium salt, (Sigma L5125, in PBS). Plates were read on a microplate reader, measuring the OD at 620 nm. For CellTiter-Glo, plates were incubated at room temperature for 15 minutes and the chemiluminescent signal was read on the Victor V or Envison 2100 reader.
Percent inhibition of cell growth was expressed as percent proliferation relative to 100% proliferation (control). Concentration of test compound that inhibited 50% of cell growth (IC50) was determined by 4 parameter fit of data using XLfit, (value of no cell control was substracted from all samples for background). The data are shown in Table 1 and Table 2 below and represent a compilation of several different experiments each performed using the general parameters outlined above, although minor variations may have been employed in some instances. In Table 1 and Table 2, +=IC50>1+M; ++=IC50 0.5-1 μM: +++=IC50<0.5 μM.

T1 sequence (P53350 21-346): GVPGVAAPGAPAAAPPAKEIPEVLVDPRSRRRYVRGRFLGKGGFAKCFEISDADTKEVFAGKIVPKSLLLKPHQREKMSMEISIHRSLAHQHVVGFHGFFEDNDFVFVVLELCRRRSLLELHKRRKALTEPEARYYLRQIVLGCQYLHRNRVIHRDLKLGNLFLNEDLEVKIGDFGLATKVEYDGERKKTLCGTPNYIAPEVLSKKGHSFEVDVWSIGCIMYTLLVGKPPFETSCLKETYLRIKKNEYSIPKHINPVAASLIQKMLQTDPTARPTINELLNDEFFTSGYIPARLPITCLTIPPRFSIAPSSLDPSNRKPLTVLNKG

IC50 (PLK1 kinase domain) [nM] | IC50 (HCT116) [nM] | Structure (SMILES)
100 to 1000 | – | COc1cc2ncn(-c3cc(O[C@H](C)c4cc(C(=O)NCCN(C)C)ccc4Cl)c(C(N)=O)s3)c2cc1OC [Example 1, 5-[5,6-Bis(methyloxy)-1H-benzimidazol-1-yl]-3-({(1R)-1-[2-chloro-5-({[2-(dimethylamino)ethyl]amino}carbonyl)phenyl]ethyl}oxy)-2-thiophenecarboxamide formate]
< 100 | < 500 | C[C@@H](Oc1cc(-n2cnc3cc(-c4cnn(C)c4)ccc32)sc1C(N)=O)c1cccc(OCCCN(C)C)c1Cl [Example 9, 3-{[(1R)-1-(2-chloro-3-{[3-(dimethylamino)propyl]oxy}phenyl)ethyl]oxy}-5-[5-(1-methyl-1H-pyrazol-4-yl)-1H-benzimidazol-1-yl]-2-thiophenecarboxamide]
< 100 | < 500 | C[C@@H](Oc1cc(-n2cnc3cc(-c4cnn(C)c4)ccc32)sc1C(N)=O)c1cccc(OCCN(C)C)c1Cl [Example 8, 3-{[(1R)-1-(2-chloro-3-{[2-(dimethylamino)ethyl]oxy}phenyl)ethyl]oxy}-5-[5-(1-methyl-1H-pyrazol-4-yl)-1H-benzimidazol-1-yl]-2-thiophenecarboxamide]
< 100 | < 500 | COc1cc2ncn(-c3cc(O[C@H](C)c4cccc(OCCN)c4Cl)c(C(N)=O)s3)c2cc1OC [Example 3, 3-[((1R)-1-{3-[(2-aminoethyl)oxy]-2-chlorophenyl}ethyl)oxy]-5-[5,6-bis(methyloxy)-1H-benzimidazol-1-yl]-2-thiophenecarboxamide]
< 100 | < 500 | C[C@@H](Oc1cc(-n2cnc3cc(-c4cnn(C)c4)ccc32)sc1C(N)=O)c1cccc(OCCN)c1Cl [Example 7, 3-[((1R)-1-{3-[(2-aminoethyl)oxy]-2-chlorophenyl}ethyl)oxy]-5-[5-(1-methyl-1H-pyrazol-4-yl)-1H-benzimidazol-1-yl]-2-thiophenecarboxamide hydrochloride]
< 100 | < 500 | C[C@@H](Oc1cc(-n2cnc3cc(-c4cnn(C)c4)ccc32)sc1C(N)=O)c1cccc(OCCCO)c1Cl [Example 5]
– | < 500 | COc1cc2ncn(-c3cc(O[C@H](C)c4cccc(NCCO)c4Cl)c(C(N)=O)s3)c2cc1OC [Example 2, 5-[5,6-Bis(methyloxy)-1H-benzimidazol-1-yl]-3-[((1R)-1-{2-chloro-3-[(2-hydroxyethyl)amino]phenyl}ethyl)oxy]-2-thiophenecarboxamide]
< 100 | < 500 | C[C@@H](Oc1cc(-n2cnc3ccccc32)sc1C(N)=O)c1cccc(OCCN)c1Cl [Example 4, 3-[((1R)-1-{3-[(2-Aminoethyl)oxy]-2-chlorophenyl}ethyl)oxy]-5-(1H-benzimidazol-1-yl)-2-thiophenecarboxamide]
< 100 | < 500 | C[C@@H](Oc1cc(-n2cnc3cc(-c4cnn(C)c4)ccc32)sc1C(N)=O)c1cccc(OCCO)c1Cl [Example 6, 3-[((1R)-1-{2-chloro-3-[(2-hydroxyethyl)oxy]phenyl}ethyl)oxy]-5-[5-(1-methyl-1H-pyrazol-4-yl)-1H-benzimidazol-1-yl]-2-thiophenecarboxamide]
